According to patent US11000033B2, “Ketone or oxime compound, and herbicide” (NISSAN CHEMICAL CORPORATION, priority 2014, dated 2021):

Tests used:
Assay type in all cases: in vivo
[1] = tested on: Echinochloa oryzacola Vasing.; test: Test Example 2: herbicidal activity, application during weed generation in submerged conditions (symbol A); settings: Table 23; application herbicide amount 320 g/ha; grade 0-5 by criteria of Test Example 1
Summary of the method: (§1)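 Scoring of herbicidal effect took place 3 weeks after treatment, using the criteria of the earlier test. Treatment was water-surface application of diluted emulsifiable compound at a set dose. Plants were at one- to two-leaf stage in submerged alluvial soil (4 cm depth), greenhouse 25-30° C.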

Setaria viridis = test: Test Example 4: herbicidal effect by soil treatment (symbol G); settings: for Herbicidal effect grade, G: Setaria viridis: application herbicide amount 320 g/ha; for G: Setaria viridis, herbicidal effect grade: 320 g/ha
Summary of the method: (§2)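 Seeds were sown in sterilized diluvial soil, covered with about 1.5 cm of soil, and the soil surface was sprayed with a water-diluted emulsion of the compound at a predetermined rate. Plants grew in a greenhouse at 25° C. to 30° C.; effects were scored visually 3 weeks after application.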

transplanted rice plant = test: Test Example 1: effect on crop, application before weed generation in submerged conditions (symbol a); settings: application herbicide amount 320 g/ha
Summary of the method: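 Rice at 2.5 leaf stage transplanted into submerged soil (4 cm depth) sown with three weed species; herbicide applied before weed emergence.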

Cyperus difformis = test: Test Example 3: herbicidal effect by foliage application, Wagner pot (symbol E); settings: application herbicide amount 320 g/ha
Summary of the method: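 Foliar spray of a water-diluted emulsion at a predetermined herbicide amount, applied to 14-day-old plants. Seedlings were raised in flooded alluvial soil (0.1–0.5 cm water) at 25–30 °C in a greenhouse. Injury was rated after 3 weeks against fixed criteria.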

Alopecurus myosuroides = test: Test Example 5: herbicidal effect by foliage application, plastic box (symbol J); settings: 320 g/ha, 3 weeks after application
Summary of the method: (§3)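 Greenhouse foliar test: seedlings at 14 days, grown 25° C. to 30° C. in sterilized diluvial soil; compound applied as an aqueous dilution of an emulsion; response read 3 weeks after spraying.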

Scirpus juncoides [2] = test: Test Example 2: herbicidal activity, application during weed generation in submerged conditions (symbol B); settings: Table 23; application herbicide amount 320 g/ha; grade 0-5 by criteria of Test Example 1
Summary of the method: as §1

[3] = tested on: Echinochloa crus-galli var. crus-galli; test: Test Example 5: herbicidal effect by foliage application, plastic box (symbol H); settings: 320 g/ha, 3 weeks after application
Summary of the method: as §3

Apera spica-venti = test: Test Example 4: herbicidal effect by soil treatment (symbol L); settings: for Herbicidal effect grade, L: Apera spica-venti: application herbicide amount 320 g/ha; for L: Apera spica-venti, herbicidal effect grade: 320 g/ha
Summary of the method: as §2

Amaranthus retroflexus [4] = test: Test Example 5: herbicidal effect by foliage application, plastic box (symbol N); settings: 320 g/ha, 3 weeks after application
Summary of the method: as §3

wheat = test: Test Example 4: effect on crop by soil treatment (symbol e); settings: for Effect on crop grade, e: wheat: application herbicide amount 320 g/ha; for e: wheat, effect grade on crop: 320 g/ha
Summary of the method: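 Soil-treatment setup: crop and weed seeds were spot-sown into sterilized diluvial soil, then buried beneath approximately 1.5 cm of it, and the boxes were housed in a 25–30° C. greenhouse.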

Scirpus juncoides [5] = test: Test Example 1: herbicidal activity, application before weed generation in submerged conditions (symbol B); settings: application herbicide amount 320 g/ha
Summary of the method: (§4)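 Steps: alluvial soil flooded to 4 cm; weed seeds sown together; rice seedlings (2.5 leaf) transplanted; diluted emulsion applied to water surface the same day as sowing; plants grown at 25–30 °C in greenhouse; herbicidal effect rated on a 0–5 scale at 3 weeks.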

Amaranthus retroflexus [6] = test: Test Example 4: herbicidal effect by soil treatment (symbol N); settings: for Herbicidal effect grade, N: Amaranthus retroflexus: application herbicide amount 320 g/ha; for N: Amaranthus retroflexus, herbicidal effect grade: 320 g/ha
Summary of the method: as §2

[7] = tested on: Echinochloa oryzacola Vasing.; test: Test Example 1: herbicidal activity, application before weed generation in submerged conditions (symbol A); settings: application herbicide amount 320 g/ha
Summary of the method: as §4

Compound	Herbicidal effect grade, A: Echinochloa oryzacola Vasing. [1]	Herbicidal effect grade, B: Scirpus juncoides (Scirpus juncoides [2])	G: Setaria viridis, herbicidal effect grade (Setaria viridis)	Effect grade on crop, a: transplanted rice plant (transplanted rice plant)	J: Alopecurus myosuroides, herbicidal effect (criteria 0-5) (Alopecurus myosuroides)	H: Echinochloa crus-galli var. crus-galli, herbicidal effect (criteria 0-5) [3]	L: Apera spica-venti, herbicidal effect grade (Apera spica-venti)	e: wheat, effect grade on crop (wheat)	Herbicidal effect grade, B: Scirpus juncoides (Scirpus juncoides [5])	N: Amaranthus retroflexus, herbicidal effect grade (Amaranthus retroflexus [6])	Herbicidal effect grade, A: Echinochloa oryzacola Vasing. [7]	N: Amaranthus retroflexus, herbicidal effect (criteria 0-5) (Amaranthus retroflexus [4])	other results
CC(CC1CC(OC(=O)COc2ccccc2)=C(c2c(C)cc(-c3ccc(Cl)cc3)cc2C)C1=O)=NOCC(F)(F)F (mixture of isomers) [9-027]	3 (Herbicidal ratio of 40% or higher and lower than 70%)	0 (Herbicidal ratio of 5% or lower (almost no effect))	–	–	–	–	–	–	–	–	–	–	Herbicidal effect grade, G: Setaria viridis (Setaria viridis): 5 (Herbicidal ratio of 90% or more (almost completely withered)); a (transplanted rice plant) effect on crop grade (transplanted rice plant): 5 (Herbicidal ratio of 90% or more (almost completely withered)); E herbicidal effect grade (Cyperus difformis; Table 24): 5 (Herbicidal ratio of 90% or more (almost completely withered)); J: Alopecurus myosuroides, herbicidal effect grade (Alopecurus myosuroides): 5 (Herbicidal ratio of 90% or more (almost completely withered)); H: Echinochloa crus-galli var. crus-galli, herbicidal effect grade [3]: 5 (Herbicidal ratio of 90% or more (almost completely withered)); Herbicidal effect grade, L: Apera spica-venti (Apera spica-venti): 5 (Herbicidal ratio of 90% or more (almost completely withered)); N: Amaranthus retroflexus, herbicidal effect grade (Amaranthus retroflexus [4]): 0 (Herbicidal ratio of 5% or lower (almost no effect)); Effect on crop grade, e: wheat (wheat): 2 (Herbicidal ratio of 20% or higher and lower than 40%); B (Scirpus juncoides) herbicidal effect grade (Scirpus juncoides [5]): 2 (Herbicidal ratio of 20% or higher and lower than 40%); Herbicidal effect grade, N: Amaranthus retroflexus (Amaranthus retroflexus [6]): 3 (Herbicidal ratio of 40% or higher and lower than 70%); A (Echinochloa oryzacola Vasing.) herbicidal effect grade [7]: 5 (Herbicidal ratio of 90% or more (almost completely withered))
CON=C(CC1CC(O)=C(c2c(C)cc(-c3ccccc3)cc2C)C1=O)C1CC1 (mixture of isomers) [9-028]	5 (Herbicidal ratio of 90% or more (almost completely withered))	4 (Herbicidal ratio of 70% or higher and lower than 90%)	–	–	–	–	–	–	–	–	–	–	Herbicidal effect grade, G: Setaria viridis (Setaria viridis): 5 (Herbicidal ratio of 90% or more (almost completely withered)); a (transplanted rice plant) effect on crop grade (transplanted rice plant): 5 (Herbicidal ratio of 90% or more (almost completely withered)); J: Alopecurus myosuroides, herbicidal effect grade (Alopecurus myosuroides): 5 (Herbicidal ratio of 90% or more (almost completely withered)); H: Echinochloa crus-galli var. crus-galli, herbicidal effect grade [3]: 5 (Herbicidal ratio of 90% or more (almost completely withered)); Herbicidal effect grade, L: Apera spica-venti (Apera spica-venti): 5 (Herbicidal ratio of 90% or more (almost completely withered)); N: Amaranthus retroflexus, herbicidal effect grade (Amaranthus retroflexus [4]): 1 (Herbicidal ratio of 5% or higher and lower than 20%); Effect on crop grade, e: wheat (wheat): 3 (Herbicidal ratio of 40% or higher and lower than 70%); B (Scirpus juncoides) herbicidal effect grade (Scirpus juncoides [5]): 5 (Herbicidal ratio of 90% or more (almost completely withered)); Herbicidal effect grade, N: Amaranthus retroflexus (Amaranthus retroflexus [6]): 0 (Herbicidal ratio of 5% or lower (almost no effect)); A (Echinochloa oryzacola Vasing.) herbicidal effect grade [7]: 5 (Herbicidal ratio of 90% or more (almost completely withered))
CON=C(CC1CC(O)=C(c2c(C)cc(C)cc2C)C1=O)C(F)(F)F (stereo not shown) [1-097]	1 (Herbicidal ratio of 5% or higher and lower than 20%)	0 (Herbicidal ratio of 5% or lower (almost no effect))	2 (Herbicidal ratio of 20% or higher and lower than 40%)	3 (Herbicidal ratio of 40% or higher and lower than 70%)	5 (Herbicidal ratio of 90% or more (almost completely withered))	5 (Herbicidal ratio of 90% or more (almost completely withered))	0 (Herbicidal ratio of 5% or lower (almost no effect))	0 (Herbicidal ratio of 5% or lower (almost no effect))	0 (Herbicidal ratio of 5% or lower (almost no effect))	0 (Herbicidal ratio of 5% or lower (almost no effect))	3 (Herbicidal ratio of 40% or higher and lower than 70%)	–	–
CC(CC1CC(O)=C(c2c(C)cc(C)cc2C)C1=O)=NOCc1ccccc1Cl (stereo not shown) [1-113]	3 (Herbicidal ratio of 40% or higher and lower than 70%)	3 (Herbicidal ratio of 40% or higher and lower than 70%)	0 (Herbicidal ratio of 5% or lower (almost no effect))	3 (Herbicidal ratio of 40% or higher and lower than 70%)	4 (Herbicidal ratio of 70% or higher and lower than 90%)	4 (Herbicidal ratio of 70% or higher and lower than 90%)	5 (Herbicidal ratio of 90% or more (almost completely withered))	0 (Herbicidal ratio of 5% or lower (almost no effect))	4 (Herbicidal ratio of 70% or higher and lower than 90%)	0 (Herbicidal ratio of 5% or lower (almost no effect))	5 (Herbicidal ratio of 90% or more (almost completely withered))	0 (Herbicidal ratio of 5% or lower (almost no effect))	–
CC(CC1CC(O)=C(c2c(C)cc(C)cc2C)C1=O)=NOCc1ccccc1[N+](=O)[O-] (stereo not shown) [1-119]	–	–	4 (Herbicidal ratio of 70% or higher and lower than 90%)	3 (Herbicidal ratio of 40% or higher and lower than 70%)	5 (Herbicidal ratio of 90% or more (almost completely withered))	5 (Herbicidal ratio of 90% or more (almost completely withered))	5 (Herbicidal ratio of 90% or more (almost completely withered))	0 (Herbicidal ratio of 5% or lower (almost no effect))	0 (Herbicidal ratio of 5% or lower (almost no effect))	0 (Herbicidal ratio of 5% or lower (almost no effect))	1 (Herbicidal ratio of 5% or higher and lower than 20%)	0 (Herbicidal ratio of 5% or lower (almost no effect))	herbicidal effect on E, grade 0-5 (Cyperus difformis): 0 (Herbicidal ratio of 5% or lower (almost no effect))
CON=C(C)CC1CC(OC(=O)N(C)CCCCCl)=C(c2c(C)cc(C)cc2C)C1=O (stereo not shown) [1-126]	–	–	0 (Herbicidal ratio of 5% or lower (almost no effect))	3 (Herbicidal ratio of 40% or higher and lower than 70%)	5 (Herbicidal ratio of 90% or more (almost completely withered))	4 (Herbicidal ratio of 70% or higher and lower than 90%)	0 (Herbicidal ratio of 5% or lower (almost no effect))	0 (Herbicidal ratio of 5% or lower (almost no effect))	0 (Herbicidal ratio of 5% or lower (almost no effect))	0 (Herbicidal ratio of 5% or lower (almost no effect))	4 (Herbicidal ratio of 70% or higher and lower than 90%)	0 (Herbicidal ratio of 5% or lower (almost no effect))	herbicidal effect on E, grade 0-5 (Cyperus difformis): 2 (Herbicidal ratio of 20% or higher and lower than 40%)
CCC(Oc1ccc2ncc(Br)cc2c1)C(=O)OC1=C(c2c(C)cc(C)cc2C)C(=O)C(CC(C)=NOC)C1 (stereo not shown) [1-140]	5 (Herbicidal ratio of 90% or more (almost completely withered))	5 (Herbicidal ratio of 90% or more (almost completely withered))	5 (Herbicidal ratio of 90% or more (almost completely withered))	5 (Herbicidal ratio of 90% or more (almost completely withered))	5 (Herbicidal ratio of 90% or more (almost completely withered))	5 (Herbicidal ratio of 90% or more (almost completely withered))	5 (Herbicidal ratio of 90% or more (almost completely withered))	5 (Herbicidal ratio of 90% or more (almost completely withered))	5 (Herbicidal ratio of 90% or more (almost completely withered))	5 (Herbicidal ratio of 90% or more (almost completely withered))	5 (Herbicidal ratio of 90% or more (almost completely withered))	3 (Herbicidal ratio of 40% or higher and lower than 70%)	–
